Patent US6709681B2, “Acidified nitrite as an antimicrobial agent” (Aberdeen University, priority 1995, dated 2004)
Read-outs that look alike come from different tables or passages of the source.

Tests used:
C albicans = test system: C albicans
Procedure: With reference to FIG. 1 a single colony of C albicans was used to inoculate an overnight culture in Sabouraud's broth. 10 μl of this broth was added to 940 μl of a citrate/phosphate buffered Sabouraud's broth to which was added sodium nitrite (50 μl; final concentration 250 μM) or distilled water as a control. After one hour incubation at 37° C., 10 μl was removed and cultured in 190 μl standard Sabourauds broth with continual agitation (Gallenkamp orbital incubator) in a 96-well microtitre plate at 37° C. Growth was monitored by measurement of optical density at 570 nm at regular time intervals. The results are a mean of 16 separate experiments.
The open bars show the growth of C albicans measured by the optical density method following exposure to acid alone for 1 hour, while the closed bars show growth following exposure to acid and 250 μM sodium nitrite.

[1] = test system: E coli (strain NCTC 10418)
From the text: The results shown in FIGS. 2A and 2B are a mean of 20 experiments.
The methods are those as for FIG. 2.

[2] = test system: caries-producing organisms in dental plaque; C albicans; conditions: toothpaste, mouthwash or other orally acceptable vehicle
[3] = 45 minutes after ingestion of 200 mg potassium nitrate solution; fasting mean 114 μM

Row | SMILES | killing of C albicans (C albicans; 5 nN nitrite, up to pH5) | survival of C albicans (growth by optical density) (C albicans; 250 μgM sodium nitrite, one hour, pH reduced to below 4) | elimination of C albicans (C albicans; pH 1, all concentrations above 250 μM (data not shown)) | effect on E coli ([1]; 250 μM nitrite, above pH4) | growth of E coli compared with control (acid alone) ([1]; 250 μM nitrite, pH 2, 3 and 4) | survival of E coli ([1]; 250 μM nitrite, pH2, one hour) | viability of E coli ([1]; 250 μM nitrite, pH3 and pH4) | toxic effect on E coli ([1]; pH3, 10 μM) | toxic effect on E coli ([1]; pH3, 1 mM) | reduction of caries-producing organisms in dental plaque / treatment or prevention of infection with C albicans [2] | salivary nitrite (mean) [3] [µM]
1 | O=NO [sodium nitrite] | killed C albicans | incrementally killed C albicans | effective in eliminating C albicans | no effect | significantly (p<0.05) impaired | eliminates E coli | significantly reduces the viability | discernable effect | killed E coli completely | effective | 
2 | O=[N+]([O-])O [nitrate] |  |  |  |  |  |  |  |  |  | effective | 
3 | O=[N+]([O-])[O-].[K+] [potassium nitrate] |  |  |  |  |  |  |  |  |  |  | 1030
